For this experiment, the system named is rhizogenic calli derived from leaf explants. Nature of the experiment: adventitious shoot bud formation on rhizogenic calli derived from tea leaf explants. Type of experiment: cell-based, Camellia sinensis. The following applies: rhizogenic calli transferred to auxin free MS medium with 0.5 to 8 mg/l 6 Benzyl amino purine.

Molecules are shown by their SMILES.

Description: iv) For adventitious shoot bud formation, the rhizogenic callus cultures obtained from step (iii) were transferred to (0.8%) agar solidified basal MS medium supplemented with 6 Benzyl amino purine (0.5 to 8.0 mg/l) and 3% sucrose.
After 4-10 weeks, the rhizogenic callus was transferred to (0.8%) agar solidified basal MS medium supplemented with 3% sucrose and 0.5 to 8.0 mg/l 6 Benzyl amino purine for adventitious shoot bud formation.

For `c1ccc(CNc2ncnc3nc[nH]c23)cc1` [6 Benzyl amino purine], the “adventitious shoot bud development” value is listed as “more than 30%” and the “explants responding (leaf explant response)” value is reported as about 100%.

Source of the values: patent US6599743B2, “Method for microproduction of tea plants from leaf explants” (Council of Scientific & Industrial Research, priority 2001, dated 2003).
